For assay [1], the system named is Arthrobacter luteus ATCC 21606 thermostable xanthine oxidase (enzyme of the invention). In words: km value of the thermostable xanthine oxidase of the invention. It is filed as biochemical. As to the method: 50 mM tris-hydrochloric acid buffer (2.9 ml) and 0.1 ml of a 10 mM aqueous solution of xanthine are mixed, and this mixture is pre-heated at 37° C. After 0.01 ml of enzyme solution is added and gently mixed, the increase of absorbance at 293 nm per minute is determined using a spectrophotometer thermostated at 37° C. with distilled water as the control. The xanthine oxidase activity is expressed on the assumption that the amount of enzyme which produces 1 μmol of uric acid per minute under the conditions described above is taken as 1 unit (U).
After 0.01 ml of enzyme solution is added and gently mixed, the increase of absorbance at 550 nm per minute is determined using a spectrophotometer thermostated at 37° C. with distilled water as the control. The xanthine oxidase activity is expressed on the assumption that the amount of enzyme which produces 1 μmol of quinone imine pigment per minute under the conditions described above is taken as 1 unit (U).

Assay [2] relates to xanthine oxidase derived from Enterobacter cloacae. The assay is described as follows: km value of the comparative xanthine oxidase from Enterobacter cloacae. It is filed as biochemical. The conditions noted are these: Table 1, Comparative Example.
Excerpt: Determinations were made for conventional xanthine oxidase derived from milk and xanthine oxidase derived from Enterobacter cloacae.

Like-named read-outs stand apart in the source and are kept apart here.

On to `O=c1[nH]c(=O)c2[nH]cnc2[nH]1` [xanthine], for which the Km (as a rule, the substrate concentration at which the rate is half of its maximum) is 54 µM in assay [1] (Table 1, enzyme of Example 1, read-out: km value xanthine); roughly 54 µM in assay [1] (pH 7.5, read-out: km value for xanthine); 73 µM in assay [2] (read-out: km value xanthine).
Turning to `O=c1[nH]cnc2nc[nH]c12` [hypoxanthine], the Michaelis constant (Km) in assay [1] (read-out: km value for hypoxanthine, pH 7.5) was roughly 52 µM; in assay [1] (read-out: km value hypoxanthine, Table 1, enzyme of Example 1) it was 52 µM; in assay [2] (read-out: km value hypoxanthine), 83 µM.

Values taken from patent publication US5185257A, “Thermostable xanthine oxidase from Arthrobacter luteus” (Toyo Boseki Kabushiki Kaisha, priority 1990, dated 1993).
